This is an account of results in PubChem BioAssay AID248 (DTP/NCI, 2004).

The assay concerns L1210 leukemia ip in BDF1 mice, survival T/C. In words: NCI In Vivo Anticancer Drug Screen. Data for tumor model L1210 Leukemia (intraperitoneal) in B6D2F1 (BDF1) mice. As to conditions: endpoint: mean survival time, higher = longer survival. Put shortly: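 Each compound was tested against a transplantable tumor grown in mice. The endpoint was survival, with treated animals benchmarked against vehicle controls as a simple ratio.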

Where [1] appears, read: dose: 100.0 mg/kg/injection, schedule: Q04DX003 (ip), vehicle: Klucel (hydroxypropylcellulose) (HPC).
[2] abbreviates: dose: 100.0 mg/kg/injection, schedule: Q04DX002 (ip), vehicle: Klucel (hydroxypropylcellulose) (HPC).
Setting [3] is: dose: 200.0 mg/kg/injection, schedule: Q04DX002 (ip), vehicle: Klucel (hydroxypropylcellulose) (HPC).
[4] abbreviates: dose: 400.0 mg/kg/injection, schedule: Q04DX002 (ip), vehicle: Klucel (hydroxypropylcellulose) (HPC).

“And” between values parts separate entries of the source, which are not always exact repeats. Equal entries are not always repeated. Inconclusive results and toxic doses are left out.

As for `O=NN(CCCl)C(=O)NC1CCCCCCCCCCC1`, the T/C reads like this: (dose: 2.5 mg/kg/injection, schedule: Q01DX001 (ip), vehicle: carboxymethylcellulose (CMC)) 114 % of control; (dose: 5.0 mg/kg/injection, schedule: Q01DX001 (ip), vehicle: carboxymethylcellulose (CMC)) 120 % of control; (dose: 8.0 mg/kg/injection, schedule: Q01DX001 (ip), vehicle: carboxymethylcellulose (CMC)) 123 % of control; (dose: 12.0 mg/kg/injection, schedule: Q01DX001 (ip), vehicle: carboxymethylcellulose (CMC)) 121 % of control; (dose: 187.0 mg/kg/injection, schedule: Q01DX001 (ip), vehicle: carboxymethylcellulose (CMC)) 166 % of control; (dose: 250.0 mg/kg/injection, schedule: Q01DX001 (ip), vehicle: carboxymethylcellulose (CMC)) 153 % of control. The T/C runs as follows: (dose: 375.0 mg/kg/injection, schedule: Q01DX001 (ip), vehicle: carboxymethylcellulose (CMC)) 160 % of control; (dose: 500.0 mg/kg/injection, schedule: Q01DX001 (ip), vehicle: carboxymethylcellulose (CMC)) 174 % of control; (dose: 555.0 mg/kg/injection, schedule: Q01DX001 (ip), vehicle: other) 172 % of control; (dose: 596.0 mg/kg/injection, schedule: Q01DX001 (ip), vehicle: other) 155 % of control; (dose: 750.0 mg/kg/injection, schedule: Q01DX001 (ip), vehicle: carboxymethylcellulose (CMC)) 233 % of control; (dose: 838.0 mg/kg/injection, schedule: Q01DX001 (ip), vehicle: other) 221 % of control. Further, the T/C was 247 % of control (dose: 1000.0 mg/kg/injection, schedule: Q01DX001 (ip), vehicle: carboxymethylcellulose (CMC)); 185 % of control (dose: 1192.0 mg/kg/injection, schedule: Q01DX001 (ip), vehicle: other); 274 % of control (dose: 1250.0 mg/kg/injection, schedule: Q01DX001 (ip), vehicle: other); 167 % of control (dose: 1500.0 mg/kg/injection, schedule: Q01DX001 (ip), vehicle: other); 261 % of control (dose: 1875.0 mg/kg/injection, schedule: Q01DX001 (ip), vehicle: other); 91 % of control (dose: 2000.0 mg/kg/injection, schedule: Q01DX001 (ip), vehicle: other). Further, the T/C (dose: 2384.0 mg/kg/injection, schedule: Q01DX001 (ip), vehicle: other) is 178 % of control.

As for `CCOC(=O)CCC(NC(=O)OCc1ccccc1)C(=O)O` (stereo unspecified), the T/C under setting [1] was 91 % of control and the T/C (dose: 200.0 mg/kg/injection, schedule: Q04DX003 (ip), vehicle: Klucel (hydroxypropylcellulose) (HPC)) was 89 % of control.

For `COc1ccc(-c2cccc(-c3ccccc3)n2)cc1`, the T/C by setting is: (dose: 12.5 mg/kg/injection, schedule: Q04DX003 (ip), vehicle: Klucel (hydroxypropylcellulose) (HPC)) 91 % of control; (dose: 25.0 mg/kg/injection, schedule: Q01DX009 (ip), vehicle: Klucel (hydroxypropylcellulose) (HPC)) 106 % of control; (dose: 25.0 mg/kg/injection, schedule: Q04DX003 (ip), vehicle: Klucel (hydroxypropylcellulose) (HPC)) 98 % of control; (dose: 50.0 mg/kg/injection, schedule: Q01DX009 (ip), vehicle: Klucel (hydroxypropylcellulose) (HPC)) 100 % of control; (dose: 50.0 mg/kg/injection, schedule: Q04DX003 (ip), vehicle: Klucel (hydroxypropylcellulose) (HPC)) 98 % of control; (dose: 100.0 mg/kg/injection, schedule: Q01DX009 (ip), vehicle: Klucel (hydroxypropylcellulose) (HPC)) 89 % of control. The T/C under setting [1] was 96 % of control.

`O=c1[nH]cnc2c1ncn2-c1ccc(N(CCO)CCO)cc1`: the T/C (dose: 50.0 mg/kg/injection, schedule: Q01DX001 (ip), vehicle: carboxymethylcellulose (CMC)) was 98 % of control; the T/C (dose: 100.0 mg/kg/injection, schedule: Q01DX001 (ip), vehicle: carboxymethylcellulose (CMC)) is 115 % of control; the T/C (dose: 200.0 mg/kg/injection, schedule: Q01DX001 (ip), vehicle: carboxymethylcellulose (CMC)) is 95 % of control; the T/C (dose: 400.0 mg/kg/injection, schedule: Q01DX001 (ip), vehicle: carboxymethylcellulose (CMC)) was 98 % of control.

On to `CN(C)C(=S)SSSSC(=S)N(C)C`, for which the T/C is 108 % of control under setting [2]; 108 % of control under setting [3]; 99 % of control and 90 % of control under setting [4].

As to `CCOC(=O)Nc1cc(Cl)c([N+](=O)[O-])c(NC(=O)OCC)n1`, the T/C runs as follows: (dose: 100.0 mg/kg/injection, schedule: Q01DX001 (ip), vehicle: other) 102 % of control; (dose: 200.0 mg/kg/injection, schedule: Q01DX001 (ip), vehicle: other) 91 % of control.

Turning to `CCCCNC(=O)C(=O)NCCCC`, the T/C is 108 % of control (dose: 100.0 mg/kg/injection, schedule: Q01DX001 (ip), vehicle: Klucel (hydroxypropylcellulose) (HPC)); 90 % of control (dose: 100.0 mg/kg/injection, schedule: Q01DX009 (ip), vehicle: other); 96 % of control under setting [2]; 103 % of control (dose: 200.0 mg/kg/injection, schedule: Q01DX001 (ip), vehicle: Klucel (hydroxypropylcellulose) (HPC)); 94 % of control (dose: 200.0 mg/kg/injection, schedule: Q01DX009 (ip), vehicle: other); 96 % of control under setting [3]. The T/C runs as follows: (dose: 400.0 mg/kg/injection, schedule: Q01DX001 (ip), vehicle: Klucel (hydroxypropylcellulose) (HPC)) 97 % of control; (dose: 400.0 mg/kg/injection, schedule: Q01DX009 (ip), vehicle: other) 95 % of control; under setting [4], 103 % of control.

Consider `O=c1cc(CS)[nH]c(=O)[nH]1`, for which the T/C (dose: 100.0 mg/kg/injection, schedule: Q04DX003 (ip), vehicle: saline) is 98 % of control; the T/C (dose: 200.0 mg/kg/injection, schedule: Q04DX003 (ip), vehicle: saline) is 101 % of control; the T/C (dose: 400.0 mg/kg/injection, schedule: Q04DX003 (ip), vehicle: saline) is 98 % of control.

Turning to `COC(=O)C1OC1c1ccccc1OC` (stereo unspecified), the T/C was 105 % of control (dose: 100.0 mg/kg/injection, schedule: Q01DX001 (ip), vehicle: saline); 102 % of control (dose: 200.0 mg/kg/injection, schedule: Q01DX001 (ip), vehicle: saline); 109 % of control (dose: 400.0 mg/kg/injection, schedule: Q01DX001 (ip), vehicle: saline).

Take `CC(C)=C1CCC(C)C/C1=N\N=C(N)N` (stereo unspecified): the T/C (dose: 15.0 mg/kg/injection, schedule: Q01DX Z (ip), vehicle: carboxymethylcellulose (CMC)) was 100 % of control; the T/C (dose: 30.0 mg/kg/injection, schedule: Q01DX Z (ip), vehicle: carboxymethylcellulose (CMC)) is 106 % of control; the T/C (dose: 60.0 mg/kg/injection, schedule: Q01DX Z (ip), vehicle: carboxymethylcellulose (CMC)) was 89 % of control; the T/C (dose: 120.0 mg/kg/injection, schedule: Q01DX Z (oral), vehicle: carboxymethylcellulose (CMC)) is 97 % of control; the T/C (dose: 240.0 mg/kg/injection, schedule: Q01DX Z (oral), vehicle: carboxymethylcellulose (CMC)) was 97 % of control; the T/C (dose: 480.0 mg/kg/injection, schedule: Q01DX Z (oral), vehicle: carboxymethylcellulose (CMC)) was 101 % of control.

With `O=C(CCCc1ccccc1)N1CCOCC1`, the T/C was 94 % of control (dose: 100.0 mg/kg/injection, schedule: Q01DX009 (ip), vehicle: saline sonified); 96 % of control (dose: 200.0 mg/kg/injection, schedule: Q01DX009 (ip), vehicle: saline sonified); 102 % of control (dose: 400.0 mg/kg/injection, schedule: Q01DX009 (ip), vehicle: saline sonified).
